In US20220177508A1, “C10-Cyclic Substituted 13-Membered Macrolides and Uses Thereof” (Zikani Therapeutics, Inc., priority 2018, published 2022):
≈ marks a conversion by molar mass, not a printed value.

How the values were obtained:
Type in all cases: cell-based
[1] = system: A. baumannii MP-15; assay: Broth dilution MIC determination (CLSI), A. baumannii MP-15; settings: Acinetobacter baumannii, MP15; strain MP-15, broth dilution; read-out: MIC A. baumanii MP-15
[2] = system: S. aureus MP-12; assay: Broth dilution MIC determination (CLSI), S. aureus MP-12; settings: Staphylococcus aureus, MP12; strain MP-12, broth dilution
[3] = system: P. aeruginosa MP-3; assay: Broth dilution MIC determination (CLSI), P. aeruginosa MP-3; settings: Pseudomonas aeruginosa, MP3; strain MP-3, broth dilution
[4] = system: E. coli MP-4; assay: Broth dilution MIC determination (CLSI), E. coli MP-4; settings: Escherichia coli, MP4; strain MP-4, broth dilution; read-out: MIC E. coli MP-4
[5] = system: K. pneumoniae MP-546; assay: Broth dilution MIC determination (CLSI), K. pneumoniae MP-546; settings: Klebsiella pneumoniae, MP546; strain MP-546, broth dilution

Compound | MIC [1] | MIC [2] | MIC [3] | MIC [4] | MIC [5]
CO[C@]1(C)C[C@@H](C)CN(C)[C@H](C2CN(C(C)C)C2)COC(=O)C(C)(C)C(=O)[C@H](C)[C@H]1O[C@@H]1O[C@H](C)C[C@H](N(C)C)[C@H]1O [Compound 35, (3R,6R,8R,9R,10R)-9-(((2S,3R,4S,6R)-4-(dimethylamino)-3-hydroxy-6-methyltetrahydro-2H-pyran-2-yl)oxy)-3-(1-isopropylazetidin-3-yl)-8-methoxy-4,6,8,10,12,12-hexamethyl-1-oxa-4-azacyclotridecane-11,13-dione] | > 32 µg/mL | > 32 µg/mL | > 32 µg/mL | < 4 µg/mL | 4 to 32 µg/mL (≈ 6.69 to 53.5 µM)
CO[C@]1(C)C[C@@H](C)CN(C)[C@H](C2CCN(CC(F)F)CC2)COC(=O)C(C)(C)C(=O)[C@H](C)[C@H]1O[C@@H]1O[C@H](C)C[C@H](N(C)C)[C@H]1O [Compound 62, (3R,6R,8R,9R,10R)-3-(1-(2,2-difluoroethyl)piperidin-4-yl)-9-(((2S,3R,4S,6R)-4-(dimethylamino)-3-hydroxy-6-methyltetrahydro-2H-pyran-2-yl)oxy)-8-methoxy-4,6,8,10,12,12-hexamethyl-1-oxa-4-azacyclotridecane-11,13-dione] | > 32 µg/mL | 4 to 32 µg/mL (≈ 6.17 to 49.4 µM) | > 32 µg/mL | < 4 µg/mL | 4 to 32 µg/mL (≈ 6.17 to 49.4 µM)
CO[C@]1(C)C[C@@H](C)CN(C)[C@H](C2CCN(C)CC2)[C@H](C)OC(=O)C(C)(C)C(=O)[C@H](C)[C@H]1O[C@@H]1O[C@H](C)C[C@H](N(C)C)[C@H]1O [Compound 130, (2S,3R,6R,8R,9R,10R)-9-(((2S,3R,4S,6R)-4-(dimethylamino)-3-hydroxy-6-methyltetrahydro-2H-pyran-2-yl)oxy)-8-methoxy-2,4,6,8,10,12,12-heptamethyl-3-(1-methylpiperidin-4-yl)-1-oxa-4-azacyclotridecane-11,13-dione] | > 32 µg/mL | > 32 µg/mL | > 32 µg/mL | 4 to 32 µg/mL (≈ 6.54 to 52.3 µM) | > 32 µg/mL
CO[C@]1(C)C[C@@H](C)CN(C)[C@H](C2CC3CCC(C2)N3C(C)C)COC(=O)C(C)(C)C(=O)[C@H](C)[C@H]1O[C@@H]1O[C@H](C)C[C@H](N(C)C)[C@H]1O (stereo partly drawn) [Compound 170, (3R,6R,8R,9R,10R)-9-(((2S,3R,4S,6R)-4-(dimethylamino)-3-hydroxy-6-methyltetrahydro-2H-pyran-2-yl)oxy)-3-(8-isopropyl-8-azabicyclo[3.2.1]octan-3-yl)-8-methoxy-4,6,8,10,12,12-hexamethyl-1-oxa-4-azacyclotridecane-11,13-dione] | > 32 µg/mL | 4 to 32 µg/mL (≈ 6.14 to 49.1 µM) | > 32 µg/mL | 4 to 32 µg/mL (≈ 6.14 to 49.1 µM) | 4 to 32 µg/mL (≈ 6.14 to 49.1 µM)
CO[C@]1(C)C[C@@H](C)CN(C)[C@H]([C@H]2CCCN(CC(C)C)C2)COC(=O)C(C)(C)C(=O)[C@H](C)[C@H]1O[C@@H]1O[C@H](C)C[C@H](N(C)C)[C@H]1O [Compound 39, (3R,6R,8R,9R,10R)-9-(((2S,3R,4S,6R)-4-(Dimethylamino)-3-hydroxy-6-methyltetrahydro-2H-pyran-2-yl)oxy)-3-((S)-1-isobutylpiperidin-3-yl)-8-methoxy-4,6,8,10,12,12-hexamethyl-1-oxa-4-azacyclotridecane-11,13-dione] | > 32 µg/mL | 4 to 32 µg/mL (≈ 6.25 to 50 µM) | > 32 µg/mL | 4 to 32 µg/mL (≈ 6.25 to 50 µM) | 4 to 32 µg/mL (≈ 6.25 to 50 µM)
CO[C@]1(C)C[C@@H](C)CN(C)[C@H](c2ccccc2)COC(=O)C(C)(C)C(=O)[C@H](C)[C@H]1O[C@@H]1O[C@H](C)C[C@H](N(C)C)[C@H]1O [Compound 42, (3R,6R,8R,9R,10R)-9-(((2S,3R,4S,6R)-4-(Dimethylamino)-3-hydroxy-6-methyltetrahydro-2H-pyran-2-yl)oxy)-8-methoxy-4,6,8,10,12,12-hexamethyl-3-phenyl-1-oxa-4-azacyclotridecane-11,13-dione] | > 32 µg/mL | > 32 µg/mL | > 32 µg/mL | 4 to 32 µg/mL (≈ 6.94 to 55.5 µM) | > 32 µg/mL
CO[C@]1(C)C[C@@H](C)CN(C)[C@H](C2CCN(CC(C)C)CC2)COC(=O)C(C)(C)C(=O)[C@H](C)[C@H]1O[C@@H]1O[C@H](C)C[C@H](N(C)C)[C@H]1O [Compound 121, (3R,6R,8R,9R,10R)-9-(((2S,3R,4S,6R)-4-(dimethylamino)-3-hydroxy-6-methyltetrahydro-2H-pyran-2-yl)oxy)-3-(1-isobutylpiperidin-4-yl)-8-methoxy-4,6,8,10,12,12-hexamethyl-1-oxa-4-azacyclotridecane-11,13-dione] | > 32 µg/mL | 4 to 32 µg/mL (≈ 6.25 to 50 µM) | > 32 µg/mL | < 4 µg/mL | < 4 µg/mL
CCN1C[C@H](C)C[C@@](C)(OC)[C@H](O[C@@H]2O[C@H](C)C[C@H](N(C)C)[C@H]2O)[C@@H](C)C(=O)C(C)(C)C(=O)OC[C@H]1C1CN(C(=O)CN(C)C)C1 [Compound 38, (3R,6R,8R,9R,10R)-9-(((2S,3R,4S,6R)-4-(dimethylamino)-3-hydroxy-6-methyltetrahydro-2H-pyran-2-yl)oxy)-3-(1-(dimethylglycyl)azetidin-3-yl)-4-ethyl-8-methoxy-6,8,10,12,12-pentamethyl-1-oxa-4-azacyclotridecane-11,13-dione] | > 32 µg/mL | 4 to 32 µg/mL (≈ 6.11 to 48.9 µM) | > 32 µg/mL | < 4 µg/mL | 4 to 32 µg/mL (≈ 6.11 to 48.9 µM)
